Source: PubChem BioAssay (NCI)
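The compound was tested at five concentrations on cells cultured in 96-well plates, with a 48-hour exposure period. GI50 marks 50% less growth. Definition used: TGI = concentration required for complete inhibition of growth.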

What was measured:
Assay in all cases: inhibition of tumour cell growth, NCI panel, 48 h
MALME-3M melanoma = test system: MALME-3M melanoma
UACC-62 melanoma = test system: UACC-62 melanoma
PC-3 prostate = test system: PC-3 prostate
K-562 leukemia = test system: K-562 leukemia
SK-MEL-28 melanoma = test system: SK-MEL-28 melanoma
SF-539 CNS = test system: SF-539 CNS
KM12 colon = test system: KM12 colon
CAKI-1 renal = test system: CAKI-1 renal
SNB-19 CNS = test system: SNB-19 CNS
SK-OV-3 ovarian = test system: SK-OV-3 ovarian

| SMILES | GI50 (MALME-3M melanoma) [µM] | TGI (MALME-3M melanoma) [µM] | GI50 (UACC-62 melanoma) [µM] | TGI (UACC-62 melanoma) [µM] | GI50 (PC-3 prostate) [µM] | TGI (PC-3 prostate) [µM] | GI50 (K-562 leukemia) [µM] | TGI (K-562 leukemia) [µM] | GI50 (SK-MEL-28 melanoma) [µM] | TGI (SK-MEL-28 melanoma) [µM] | GI50 (SF-539 CNS) [µM] | TGI (SF-539 CNS) [µM] | GI50 (KM12 colon) [µM] | TGI (KM12 colon) [µM] | GI50 (CAKI-1 renal) [µM] | TGI (CAKI-1 renal) [µM] | GI50 (SNB-19 CNS) [µM] | TGI (SNB-19 CNS) [µM] | GI50 (SK-OV-3 ovarian) [µM] | TGI (SK-OV-3 ovarian) [µM] |
| --- | --- | --- | --- | --- | --- | --- | --- | --- | --- | --- | --- | --- | --- | --- | --- | --- | --- | --- | --- | --- |
| N#Cc1cccc(NC(=O)c2cc(-c3ccc(F)cc3F)ccc2O)c1 | 1.44 | 5.48 | 0.87 | 4.42 | 2.88 | 9.88 | 1.98 | > 100 | 2.07 | 14.8 | 3.07 | 10.5 | 3 | 10.8 | 2.31 | 10.1 | 2.63 | 18.4 | – | – |
| COC(=O)C12C3C4C1C1C2C3C41NC(=O)c1csc([C@@H](C[C@H](C(C)C)N(C)C(=O)[C@@H](NC(=O)[C@H]2CCCCN2C)C2CC2)OC(C)=O)n1 (some centres undefined) | 0.0581 | > 33.3 | 0.00595 | > 33.3 | 0.0482 | > 33.3 | 0.00569 | > 33.3 | – | > 33.3 | 0.00574 | 0.11 | 0.00818 | > 33.3 | – | – | 0.077 | > 33.3 | 0.148 | > 33.3 |
| COC(=O)C(=O)C(C(=O)C=C(C)C)C(=O)C(=O)Nc1ccc(C)cc1C (centres undefined) | – | > 100 | – | > 100 | – | – | – | > 100 | – | > 100 | – | > 100 | – | > 100 | – | > 100 | – | > 100 | – | > 100 |
| CCCS(=O)(=O)/C(=C(\c1ccc(Br)cc1)S(=O)(=O)CCC)c1ccc(Br)cc1 | – | > 10 | – | > 10 | – | – | – | > 10 | – | > 10 | – | > 10 | – | > 10 | – | > 10 | – | > 10 | – | > 10 |
| CC(=O)O.[Au].c1ccc([PH+](c2ccccc2)c2ccccc2)cc1 | 1.62 | 3.15 | 1.47 | 4.03 | – | – | – | – | 1.63 | 3.66 | 8.6 | 23.2 | 11.7 | 39.8 | 2.27 | 5.35 | 4.11 | 15.8 | 15.8 | 29.2 |
| CN1C(=O)c2ccccc2NC(=O)C12O[C@@H]2c1cccc(O)c1 (some centres undefined) | – | > 100 | – | > 100 | – | > 100 | – | – | – | > 100 | – | > 100 | – | > 100 | – | > 100 | – | > 100 | – | – |
| Cc1nc2ccccc2c(=O)n1-c1ccccc1F | – | > 100 | – | > 100 | – | – | – | > 100 | – | > 100 | – | > 100 | – | > 100 | – | > 100 | – | > 100 | – | > 100 |
| CC(C)c1cc2c(O)c(c1)Cc1cc(C(C)C)cc(c1O)Cc1cc(C(C)C)cc(c1O)Cc1cc(C(C)C)cc(c1O)C2 | – | > 100 | – | > 100 | – | – | – | > 100 | – | – | – | > 100 | – | > 100 | – | > 100 | – | > 100 | – | > 100 |
| CNc1nc(N)c(N=O)c(Nc2ccc(Br)cc2)n1 | – | > 100 | – | > 100 | – | > 100 | – | > 100 | – | > 100 | – | > 100 | – | > 100 | – | – | – | > 100 | – | – |
| OC/C=C(\I)CCCOCOCc1ccccc1 | – | – | – | > 100 | – | – | – | > 100 | – | > 100 | – | > 100 | – | > 100 | – | – | – | > 100 | – | > 100 |
